In patent US6506800B2, “1,4 diaryl-2,3-difluoro-2-butene insecticidal and acaricidal agents” (BASF Aktiengesellschaft, priority 2000, dated 2003):

Tests used:
Type in all cases: in vivo
[1] = test system: Diabrotica virgifera virgifera Leconte, 3rd instar western corn rootworm (WCR); experiment: Western corn rootworm (WCR) soil test; settings: 1.25 mg active ingredient per jar in soil (approx. 50 kg/ha), 5 days, kill rating 0-9
Experimental: Diabrotica virgifera virgifera Leconte, 3rd instar western corn rootworm (WCR) One ccm of fine talc is placed in a 30 ml wide-mouth screw-top glass jar. One ml of the appropriate acetone test solution is pipetted onto the talc so as to provide 1.25 mg of active ingredient per jar. The jars are set under a gentle air flow until the acetone is evaporated. The dried talc is loosened, 1 ccm of millet seed is added to serve as food for the insects and 25 ml of moist soil is added to each jar. The jar is capped and the contents thoroughly mixed mechanically. Following this, ten 3rd instar rootworms are added to each jar and the jars are loosely capped to allow air exchange for the larvae. The treatments are held for 5 days when mortality counts are made. Missing larvae are presumed dead, since they decompose rapidly and cannot be found. The concentrations of active ingredient used in this test correspond approximately to 50 kg/ha.

[2] = test system: Tetranychus urticae (OP-resistant strain), 2-spotted spider mite (TSM); experiment: 2-spotted spider mite (TSM) plant dip test; set-up: key: 0 = no effect; 1 = 10-25% kill; 2 = 26-35% kill; 3 = 36-45% kill; 4 = 46-55% kill; 5 = 56-65% kill; 6 = 66-75% kill; 7 = 76-85% kill; 8 = 86-99% kill; 9 = 100% kill; settings: dip of infested lima bean plants, 2 days, kill rating 0-9
Experimental: (§1) Test solutions are prepared by dissolving the test compound in a 35% acetone in water mixture to give a concentration of 10000 ppm. Subsequent dilutions are made with water as needed.
Tetranychus urticae (OP-resistant strain), 2-spotted spider mite (TSM)
Sieva lima bean plants with primary leaves expanded to 7-8 cm are selected and cut back to one plant per pot. A small piece is cut from an infested leaf taken from the main colony and placed on each leaf of the test plants. This is done about 2 hours before treatment to allow the mites to move over to the test plant to lay eggs. By the size of the cut, infested leaf is varied to obtain about 100 mites per leaf. At the time of test treatment, the piece of leaf used to transfer the mites is removed and discarded. The newly-infested plants are dipped in the test solution for 3 seconds with agitation and set in the hood to dry. After 2 days, one leaf is removed and mortality counts are made.

[3] = test system: Heliothis virenscens, 3rd instar tobacco budworm (TBW); experiment: Tobacco budworm (TBW) cotton cotyledon dip test; set-up: key: 0 = no effect; 1 = 10-25% kill; 2 = 26-35% kill; 3 = 36-45% kill; 4 = 46-55% kill; 5 = 56-65% kill; 6 = 66-75% kill; 7 = 76-85% kill; 8 = 86-99% kill; 9 = 100% kill; settings: 3 days, kill rating 0-9
Experimental: as §1
Heliothis virenscens, 3rd instar tobacco budworm (TBW)
Cotton cotyledons are dipped in the test solution and allowed to dry in a hood. When dry, each is cut into quarters and ten sections are placed individually in 30 ml plastic medicine cups containing a 5 to 7 mm long piece of damp dental wick. One 3rd instar caterpillar is added to each cup and a cardboard lid placed on the cup. Treatments are maintained for 3 days before mortality counts and estimates of reduction in feeding damage are made.

[4] = test system: Spodoptera eridania, 3rd instar larvae, southern armyworm (SAW); experiment: Southern armyworm (SAW) leaf-dip test; settings: lima bean leaf dip, after 5 days, kill rating 0-9
Experimental: as §1
Spodoptera eridania, 3rd instar larvae, southern armyworm (SAW)
A Sieva lima bean leaf expanded to 7-8 cm in length is dipped in the test solution with agitation for 3 seconds and allowed to dry in a hood. The leaf is then placed in a 100×10 mm petri dish containing a damp filter paper on the bottom and ten 3rd instar caterpillars. After 5 days, observations are made of mortality, reduced feeding, or any interference with normal molting.

[5] = test system: Aphis fabae, mixed instar, bean aphid (BA); experiment: Bean aphid (BA) spray test on nasturtium; set-up: key: 0 = no effect; 1 = 10-25% kill; 2 = 26-35% kill; 3 = 36-45% kill; 4 = 46-55% kill; 5 = 56-65% kill; 6 = 66-75% kill; 7 = 76-85% kill; 8 = 86-99% kill; 9 = 100% kill; settings: spray on infested nasturtium plants, 2 days, kill rating 0-9
Experimental: Test solutions are prepared by dissolving the test compound in a 35% acetone in water mixture to give a concentration of 10000 ppm. Subsequent dilutions are made with water as needed. Aphis fabae, mixed instar, bean aphid (BA) Pots containing single nasturtium plants (Tropaeolum sp.) about 5 cm tall are infested with about 100-200 aphids one day before the test. Each pot is sprayed with the test solution for 2 revolutions of a 4 rounds per minute (rpm) turntable in a hood. The spray is directed to give complete coverage of the plants and aphids. The sprayed pots are set on their sides on white trays and held for 2 days, following which mortality estimates are made.

Row | SMILES | WCR (50 ppm) rating [1] | TSM (100 ppm) rating [2] | TBW (100 ppm) rating [3] | SAW (100 ppm) rating [4] | BA (100 ppm) rating [5]
1 | COCCC(/C(F)=C(\F)Cc1ccc(F)c(Oc2ccccc2)c1)c1ccc(Cl)cc1 (centres unmarked) [Compound 4, 4-[(2E)-4-(4-chlorophenyl)-2,3-difluoro-6-methoxy-2-hexenyl]-1-fluoro-2-phenoxybenzene] | 9 (9 = 100% kill) | 0 | 9 (9 = 100% kill) | 9 (9 = 100% kill) | 0
2 | COCCC(/C(F)=C(\F)Cc1cccc(Oc2ccccc2)c1)c1ccc(Cl)cc1 (centres unmarked) [Compound 1, 1-[(2E)-4-(4-chlorophenyl)-2,3-difluoro-6-methoxy-2-hexenyl]-3-phenoxybenzene] | 8 (8 = 86-99% kill) | 0 | 0 | 9 (9 = 100% kill) | 2 (2 = 26-35% kill)
3 | C=CC(/C(F)=C(\F)Cc1cccc(Oc2ccccc2)c1)c1ccc(Cl)cc1 (centres unmarked) [Compound 3, 1-[(2E)-4-(4-chlorophenyl)-2,3-difluoro-2,5-hexadienyl]-3-phenoxybenzene] | 9 (9 = 100% kill) | 0 | 9 (9 = 100% kill) | 9 (9 = 100% kill) | 9 (9 = 100% kill)
4 | C=CCC(/C(F)=C(\F)Cc1cccc(Oc2ccccc2)c1)c1ccc(Cl)cc1 (centres unmarked) [Compound 2, 1[(2E)-4-(4-chlorophenyl)-2,3-difluoro-2,6-heptadienyl]-3-phenoxybenzene] | 9 (9 = 100% kill) | 0 | 9 (9 = 100% kill) | 9 (9 = 100% kill) | 9 (9 = 100% kill)
